Results: patent US5104659A, “Compositions, devices and method for controlling insects” (priority 1984, dated 1992)
Where two headings read alike, the source gives them in different places.

Tests used:
[1] = test system: Non-resistant strain (house flies); experiment: Chamber screening evaluation of ear tags, % fly mortality, non-resistant strain; assay type: in vivo; details: positive control, petri dish 0.05%, 8640 min
Experimental: (§1) The ear tags are hung in a chamber covered with mesh cloth to keep the flies confined in the 12"×17"×9" space. Each chamber contains a cup of water and a supply of sugar and powdered milk.
(§2) At the start of the test, ~100 three to five day old house flies are placed in each chamber. The chambers are kept in a room with the temperature at 82° F. (27.8° C.). The flies are observed daily (except Saturday and Sunday) and mortality is recorded. At the termination of the study, the chambers are placed in a freezer overnight to kill the remaining flies, which are then counted. The percent mortality is calculated based on the number of flies that die during the observation period and the number of flies counted at the end of the study.

[2] = test system: Resistant strain (flucythrinate resistant house flies); experiment: Chamber screening evaluation of ear tags, % fly mortality, resistant strain; assay type: in vivo; details: positive control, petri dish 0.05%, 8640 min
Experimental: as §1, §2

[3] = test system: pyrethroid resistant female flies; assay type: in vivo
[4] = Stability of organophosphates by differential scanning calorimetry (DSC); assay type: physicochemical; details: for Onset of Decomposition: DSC; for decomposition points as determined by differential scanning calorimetry: below the 160° C. minimum temperatures encountered during extrusion or injection molding
Experimental: The insect control devices of the present invention containing the insecticide in the coating composition may be prepared at much lower temperatures, as low as about 20° C. The greatly-reduced processing temperatures allow the incorporation of active ingredients which are thermally unstable at elevated temperature. Examples of insecticides which may now be incorporated in such devices are dimethoate, dibrom, and chlorfenvinphos, illustrated in Table I. The decomposition points of these insecticides, as determined by differential scanning calorimetry (DSC), is below the 160° C. minimum temperatures encountered during extrusion or injection molding of plasticized PVC, and as such, these compounds can now be effectively incorporated in the present devices for control insect pests.

[5] = pyrethroid resistant female flies

SMILES	LD50 [3, 5]	Onset of Decomposition [4]	other results
CC(C)[C@H](C(=O)OC(C#N)c1cccc(Oc2ccccc2)c1)c1ccc(OC(F)F)cc1 (mixture of isomers) [flucythrinate, (±)-cyano(3-phenoxyphenyl)methyl (+)-4-(difluoromethoxy-α-(1-methyl-ethyl)benzeneacetate]	–	–	% Fly mortality - six days [1]: 77%; % Fly mortality - six days [2]: 4%
Cc1cc(Cl)ccc1N=CN(C)C [Chlordimeform]	> 8.0 Micrograms/pyrethroid resistan	–	–
CCOP(=O)(OCC)OC(=CCl)c1ccc(Cl)cc1Cl [Chlorfenvinphos, 2-Chloro-1-(2,4-dichlorophenyl)-vinyl diethyl phosphate]	0.1869-0.2626 Micrograms/pyrethroid resistan	157 °C	decomposition points as determined by differential scanning calorimetry [4]: < 160 °C
CCOP(=S)(OCC)Oc1nc(Cl)c(Cl)cc1Cl [Chlorpyrifos]	0.3144-1.486 Micrograms/pyrethroid resistan	–	–
CCOP(=S)(OCC)Oc1cc(C)nc(C(C)C)n1 [Diazinon]	–	–	LD50 ([3]; in vivo): 4.0626-6.2101
COP(=O)(OC)OC(Br)C(Cl)(Cl)Br (centres unmarked) [Dibrom, 1,2-Dibromo-2,2-dichloroethyl dimethyl phosphate]	–	103 °C	decomposition points as determined by differential scanning calorimetry [4]: < 160 °C
COP(=S)(OC)Oc1ccc([N+](=O)[O-])cc1Cl [Dicapthon]	0.2649-0.6539 Micrograms/pyrethroid resistan	–	–
CNC(=O)CSP(=S)(OC)OC [Dimethoate, O,O-dimethyl S-(N-methylcarbamoyl-methyl)phosphorodithioate]	–	105 °C	decomposition points as determined by differential scanning calorimetry [4]: < 160 °C
O=S1OCC2C(CO1)C1(Cl)C(Cl)=C(Cl)C2(Cl)C1(Cl)Cl (centres unmarked) [Endosulfan]	0.3518-0.5009 Micrograms/pyrethroid resistan	–	–
COP(=S)(OC)Oc1ccc(S(=O)(=O)N(C)C)cc1 [Famphur]	–	–	LD50 ([3]; in vivo): 0.1359-8.448
CCOC(=O)CC(SP(=S)(OC)OC)C(=O)OCC (centres unmarked) [Malathion]	4.4757-6.9321 Micrograms/pyrethroid resistan	–	–
CNC(=O)ON=C(C)SC [Methomyl]	0.5027-0.6807 Micrograms/pyrethroid resistan	–	–
CCCCOCCOCCOCc1cc2c(cc1CCC)OCO2 [Piperonyl butoxide]	–	–	LD50 ([3]; in vivo): 2.725-3.7726
COP(=S)(OC)Oc1ccc(Sc2ccc(OP(=S)(OC)OC)cc2)cc1 [Temephos]	–	142 °C	–
COP(=O)(OC)O/C(=C\Cl)c1cc(Cl)c(Cl)cc1Cl [Tetrachlorvinphos]	–	190 °C	–
